Tests used:
[1] = target: T1, PI3Kα (Homo sapiens, UniProt P42336); test: Kinase enzyme assay (ADP-Glo), PI3Kα; assay type: biochemical; conditions: read-out: In Vitro Enzymatic IC50 PI3Kα
T1 construct: purchased Invitrogen, or BPS Bioscience Inc., or SignalChem PV4788 / 40620 / P27-18H

[2] = target: T2, p110α(H1047R)/p85α (Homo sapiens, UniProt P42336, H1047R); test: Kinase enzyme assay (ADP-Glo), PI3Kα (H1047R); assay type: biochemical; conditions: read-out: In Vitro Enzymatic IC50 PI3Kα (H1047R)
T2 construct: purchased BPS 40641

[3] = target: HDAC1 (Homo sapiens, UniProt Q13547); test: HDAC enzyme assay, recombinant HDAC1
[4] = target: T3, HDAC6 (Homo sapiens, UniProt Q9UBN7); test: HDAC enzyme assay, recombinant HDAC6
T3 sequence (Q9UBN7 1-1215): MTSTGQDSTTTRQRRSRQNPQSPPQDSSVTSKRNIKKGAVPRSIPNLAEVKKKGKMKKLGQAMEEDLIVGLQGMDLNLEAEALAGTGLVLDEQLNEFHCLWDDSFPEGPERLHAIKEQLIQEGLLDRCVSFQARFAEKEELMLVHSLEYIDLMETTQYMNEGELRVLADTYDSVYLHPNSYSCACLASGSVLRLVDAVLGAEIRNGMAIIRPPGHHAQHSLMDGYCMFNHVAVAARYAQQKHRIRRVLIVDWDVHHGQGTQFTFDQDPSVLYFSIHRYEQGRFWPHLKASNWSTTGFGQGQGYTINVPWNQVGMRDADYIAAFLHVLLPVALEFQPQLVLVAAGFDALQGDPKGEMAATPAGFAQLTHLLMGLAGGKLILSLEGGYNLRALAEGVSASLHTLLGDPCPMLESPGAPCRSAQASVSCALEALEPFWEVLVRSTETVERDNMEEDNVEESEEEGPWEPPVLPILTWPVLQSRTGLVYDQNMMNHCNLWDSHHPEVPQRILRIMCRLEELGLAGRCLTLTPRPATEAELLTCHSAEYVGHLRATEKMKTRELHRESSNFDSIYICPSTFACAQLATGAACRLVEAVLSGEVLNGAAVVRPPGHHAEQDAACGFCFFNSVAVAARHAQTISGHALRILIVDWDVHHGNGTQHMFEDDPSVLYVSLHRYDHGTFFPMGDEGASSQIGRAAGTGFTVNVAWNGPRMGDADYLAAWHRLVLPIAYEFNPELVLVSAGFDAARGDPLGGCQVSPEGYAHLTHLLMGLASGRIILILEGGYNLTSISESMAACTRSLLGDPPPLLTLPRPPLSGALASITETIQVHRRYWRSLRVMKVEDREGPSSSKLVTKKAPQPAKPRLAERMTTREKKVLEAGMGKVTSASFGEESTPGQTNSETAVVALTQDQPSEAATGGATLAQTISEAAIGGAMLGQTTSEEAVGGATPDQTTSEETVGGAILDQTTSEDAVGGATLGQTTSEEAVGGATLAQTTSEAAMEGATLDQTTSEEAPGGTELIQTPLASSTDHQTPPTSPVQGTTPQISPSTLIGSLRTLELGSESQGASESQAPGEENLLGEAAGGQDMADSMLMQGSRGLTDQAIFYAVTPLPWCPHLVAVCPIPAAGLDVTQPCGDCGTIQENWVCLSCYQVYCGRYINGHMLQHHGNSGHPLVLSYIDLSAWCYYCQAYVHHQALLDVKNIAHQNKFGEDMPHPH

[5] = test system: MV-4-11 cells; test: Caspase activity assay, MV-4-11 cells; assay type: cell-based, human; conditions: MV-4-11 cells; for EC50: maximal activity at 24 h, read-out: EC50 induction of caspase activity
Procedure: Cells are cultivated and treated with test compounds in 96-well plates as described in the above Cell Culture and Anti-Proliferative Assays section. […] The incubation time can be extended up to overnight (18 h) if the Caspase activity is low. Staurosporine is used as positive control.
Y Axis is expressed as Mean±SD if applicable.

[6] = test system: MV-4-11 cells; test: Cell viability/cytotoxicity assay (CytoTox-Glo), MV-4-11 cells; assay type: cell-based, human; conditions: MV-4-11 cells, 48 h, CytoTox-Glo, read-out: cell death potency EC50
Procedure: Cells are cultivated and treated with test compounds in 96-well plates as described in the above Cell Culture and Anti-Proliferative Assays section, the content of dead cells and viable cells are measured using CytoTox-Glo™ Cytotoxicity Assay kit (Promega) per manufacture's protocol. Briefly, CytoTox-Glo™ Cytotoxicity Assay Reagent (48 μL/well) is added to the cells in 96-well plate and the luminescent signals are recorded using a BioTek Synergy H4 reader, then Lysis Reagent (48 μL/well) is added and the luminescent signals derived from both dead and viable cells are recorded. Viability can be calculated by subtracting the luminescent signal resulting from experimental cell death from total luminescent values. Staurosporine is used as positive control.
Fold of cell death of treated vs untreated was monitored at different time points. […] Y Axis is expressed as Mean±SD if applicable.

[7] = test system: PLC/PRF/5; test: cells; conditions: Homo sapiens, PLC-PRF-5, read-out: In Vitro Cellular IC50 PLC/PRF/5
Procedure: (§1) Cells were cultivated at 37° C., 5% CO2 in media containing 10% FBS and 2 mM glutamine Cells were routinely monitored with MycoAlert™ PLUS Mycoplasma Detection Kit (Lonza Walkersville, Inc.) to make sure they were mycoplasma free. Antibiotics (100 U/mL of penicillin and 100 μg/mL of streptomycin) were only added to the media used for compound dilution and cells in 96-well assay plates.
(§2) For a typical screening experiment, cells (100 μL/well) are inoculated into 96 well microtiter plates at plating densities ranging from 2,000 to 30,000 cells/well depending on the doubling time of individual cell lines and assay linearity. […] Suspension cells are treated with test compounds immediately after cell inoculation.
(§3) Test compounds are serially diluted (3-fold or 4-fold, 8-concentration) using the same media and added to the plates (15 to 25 μL/well). After 72 h of cultivation, the plates are assayed for cell cytotoxicity/viability by using the following two methods.
(§4) Cells in plates are fixed with cold trichloroacetic acid (TCA) (50% w/v in DI water, 1/4 volume of the medium in each well), and incubated at 4° C. for 1 h (adherent cells) or 2 h (suspension cells). The plates are washed 5 times (tap water×3, DI water×2) and air-dried. SRB solution 0.4% (w/v) in 1% acetic acid is added to each well (60 μL/well) and the plates are incubated at room temperature for 30 min, then washed with 1% acetic acid solution 4 times, and air-dried.
(§5) The plates are added CellTiter-Glo® Reagent (95 μL/well) and read the luminescence on a BioTek H4 reader per manufacture's protocol.
(§6) The raw data are processed using BioTek's Software Gen5 (v2.03.01) to generate inhibitory IC50 values.

[8] = test system: A549; test: Anti-proliferative assay (cellular IC50), A549; conditions: Homo sapiens, A549, read-out: In Vitro Cellular IC50 A549
Procedure: as §1, §2, §3, §4, §5, §6

[9] = test system: HuH-7; test: Anti-proliferative assay (cellular IC50), HuH-7; conditions: Homo sapiens, Huh-7, read-out: In Vitro Cellular IC50 HuH-7
Procedure: as §1, §2, §3, §4, §5, §6

[10] = test system: Daudi; test: Anti-proliferative assay (cellular IC50), Daudi; conditions: Homo sapiens, read-out: In Vitro Cellular IC50 Daudi
Procedure: as §1, §2, §3, §4, §5, §6

[11] = test system: A-431; test: Anti-proliferative assay (cellular IC50), A-431; conditions: Homo sapiens, A-431, read-out: In Vitro Cellular IC50 A-431
Procedure: as §1, §2, §3, §4, §5, §6

[12] = test system: U138MG; test: Anti-proliferative assay (cellular IC50), U138MG; conditions: Homo sapiens, U138-MG, read-out: In Vitro Cellular IC50 U138MG
Procedure: as §1, §2, §3, §4, §5, §6

[13] = test system: HCCLM3; test: Anti-proliferative assay (cellular IC50), HCCLM3; conditions: Homo sapiens, HCCLM3, read-out: In Vitro Cellular IC50 HCCLM3
Procedure: as §1, §2, §3, §4, §5, §6

[14] = test system: HEL9217; test: Anti-proliferative assay (cellular IC50), HEL9217; conditions: Homo sapiens, HEL 92.1.7, read-out: In Vitro Cellular IC50 HEL9217
Procedure: as §1, §2, §3, §4, §5, §6

[15] = test system: NCI-H460; test: Anti-proliferative assay (cellular IC50), NCI-H460; conditions: Homo sapiens, NCI-H460, read-out: In Vitro Cellular IC50 NCI-H460
Procedure: as §1, §2, §3, §4, §5, §6

T2 sequence (P42336 whole entry H1047R): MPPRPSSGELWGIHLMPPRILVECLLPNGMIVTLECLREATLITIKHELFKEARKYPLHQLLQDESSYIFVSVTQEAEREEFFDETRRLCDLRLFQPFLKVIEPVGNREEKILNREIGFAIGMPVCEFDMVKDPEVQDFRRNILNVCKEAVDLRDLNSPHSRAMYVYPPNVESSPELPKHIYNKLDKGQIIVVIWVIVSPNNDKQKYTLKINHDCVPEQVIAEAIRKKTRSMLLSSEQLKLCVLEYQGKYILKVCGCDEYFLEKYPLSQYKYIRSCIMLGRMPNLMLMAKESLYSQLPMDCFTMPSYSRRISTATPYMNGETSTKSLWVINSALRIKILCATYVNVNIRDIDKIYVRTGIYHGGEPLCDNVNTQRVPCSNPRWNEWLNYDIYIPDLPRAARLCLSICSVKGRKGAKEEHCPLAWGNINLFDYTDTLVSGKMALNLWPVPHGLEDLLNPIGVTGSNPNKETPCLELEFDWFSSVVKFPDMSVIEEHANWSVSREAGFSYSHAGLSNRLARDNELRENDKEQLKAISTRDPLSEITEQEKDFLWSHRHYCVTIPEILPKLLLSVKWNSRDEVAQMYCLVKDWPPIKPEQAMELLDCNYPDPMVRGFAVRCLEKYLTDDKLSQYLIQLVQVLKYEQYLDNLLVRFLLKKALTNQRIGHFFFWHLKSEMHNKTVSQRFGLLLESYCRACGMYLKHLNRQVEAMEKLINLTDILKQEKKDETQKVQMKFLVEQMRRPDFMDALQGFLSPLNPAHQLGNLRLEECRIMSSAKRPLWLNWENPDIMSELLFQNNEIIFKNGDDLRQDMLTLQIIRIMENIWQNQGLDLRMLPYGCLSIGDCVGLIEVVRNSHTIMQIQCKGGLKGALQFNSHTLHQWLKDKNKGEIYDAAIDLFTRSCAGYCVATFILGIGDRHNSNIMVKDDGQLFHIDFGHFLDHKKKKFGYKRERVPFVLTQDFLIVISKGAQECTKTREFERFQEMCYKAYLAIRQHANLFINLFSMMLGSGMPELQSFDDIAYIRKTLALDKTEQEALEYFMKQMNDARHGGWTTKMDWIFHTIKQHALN
T2 sequence (P27986 whole entry partner): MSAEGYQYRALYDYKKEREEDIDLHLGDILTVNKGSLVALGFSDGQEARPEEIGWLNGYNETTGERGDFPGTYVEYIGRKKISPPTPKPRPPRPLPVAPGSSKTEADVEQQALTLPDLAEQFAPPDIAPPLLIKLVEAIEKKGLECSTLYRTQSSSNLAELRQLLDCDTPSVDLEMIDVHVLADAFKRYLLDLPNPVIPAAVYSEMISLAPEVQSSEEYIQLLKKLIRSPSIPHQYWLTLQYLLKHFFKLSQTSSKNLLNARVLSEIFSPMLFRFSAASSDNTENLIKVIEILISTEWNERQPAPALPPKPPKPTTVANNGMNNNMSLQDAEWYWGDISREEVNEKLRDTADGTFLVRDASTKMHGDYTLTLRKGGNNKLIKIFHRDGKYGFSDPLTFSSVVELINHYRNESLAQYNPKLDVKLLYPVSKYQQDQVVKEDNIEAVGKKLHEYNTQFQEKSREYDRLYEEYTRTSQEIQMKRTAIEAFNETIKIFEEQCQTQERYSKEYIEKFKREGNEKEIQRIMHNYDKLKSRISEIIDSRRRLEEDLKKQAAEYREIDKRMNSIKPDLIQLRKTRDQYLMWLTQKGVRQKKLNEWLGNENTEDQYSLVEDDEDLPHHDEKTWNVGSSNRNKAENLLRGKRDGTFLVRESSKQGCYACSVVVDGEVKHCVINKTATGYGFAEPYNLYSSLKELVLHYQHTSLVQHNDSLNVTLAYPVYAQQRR
Sequence of HDAC1 (Q13547 whole entry): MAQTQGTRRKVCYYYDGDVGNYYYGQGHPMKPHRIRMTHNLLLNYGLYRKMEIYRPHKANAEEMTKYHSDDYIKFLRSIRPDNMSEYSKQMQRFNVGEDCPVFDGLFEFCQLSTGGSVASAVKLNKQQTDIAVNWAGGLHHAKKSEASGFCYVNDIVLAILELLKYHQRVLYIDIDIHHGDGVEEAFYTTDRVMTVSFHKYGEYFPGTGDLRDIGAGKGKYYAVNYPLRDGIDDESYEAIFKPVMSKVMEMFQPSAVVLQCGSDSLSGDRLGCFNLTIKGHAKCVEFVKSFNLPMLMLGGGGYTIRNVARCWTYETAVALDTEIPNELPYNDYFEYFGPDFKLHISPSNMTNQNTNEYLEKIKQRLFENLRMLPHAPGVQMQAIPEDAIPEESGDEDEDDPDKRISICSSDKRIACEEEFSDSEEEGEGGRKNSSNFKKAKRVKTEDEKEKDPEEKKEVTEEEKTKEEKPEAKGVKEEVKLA
T1 sequence (P42336 whole entry): as the sequence (P42336 whole entry H1047R) above, with R1047H counted along it
T1 sequence (P27986 whole entry partner): as the sequence (P27986 whole entry partner) above

IC50 [1] | IC50 [2] | IC50 [3] | IC50 [4] | EC50 [5] | IC50 [7] | IC50 [8] | IC50 [9] | IC50 [10] | IC50 [11] | IC50 [13] | IC50 [15] | EC50 ([5]; Homo sapiens, MV4-11) | SMILES | Induction of caspase activity (comparison) [5] | EC50 [6] | IC50 [12] | IC50 [14] | EC50 ([6]; Homo sapiens, MV4-11)
10 to 100 nM | 10 to 100 nM | 10 to 100 nM | 10 to 100 nM |  |  |  |  |  |  |  |  |  | CCn1c(CN(C)Cc2ccc(C(=O)NO)cc2)nc2c(N3CCOCC3)nc(-c3cnc(N)nc3)nc21 [compound 7] |  |  |  |  | 
1000 to 10000 nM | 1000 to 10000 nM | 10 to 100 nM | 10 to 100 nM | 520 nM | 500 to 2000 nM | 500 to 2000 nM | 500 to 2000 nM | < 500 nM | 2000 to 10000 nM | 2000 to 10000 nM | 500 to 2000 nM |  | CC(C)n1cnc2c(-c3cccc(OCCCC(=O)NO)c3)nc(N3CCOCC3)nc21 [compound 1] | more potent than vorinostat | 190 nM | 500 to 2000 nM | 500 to 2000 nM | 
 |  |  |  |  | 2000 to 10000 nM | < 500 nM | 500 to 2000 nM | < 500 nM | < 500 nM | 500 to 2000 nM | < 500 nM | 12700 nM | CS(=O)(=O)N1CCN(Cc2cc3nc(-c4cccc5[nH]ncc45)nc(N4CCOCC4)c3s2)CC1 [GDC-0941, reference compound] | very weak activity and potency |  | 500 to 2000 nM | 2000 to 10000 nM | 2750 nM

From US9957270B2, “Fused pyrimidine-based hydroxamate derivatives” (Agency for Science, Technology and Research, priority 2014, dated 2018)
